The source of these data is PMC6185871, “Discovery of super soft-drug modulators of sphingosine-1-phosphate receptor 1” (Bioorganic & Medicinal Chemistry Letters, 2018).

For orientation: half-life means the time in which the quantity being followed falls by half.

Bounds are passed on as bounds.

A short description of data set [1]: Kinetic aqueous solubility by laser nephelometry. Type of data set: physicochemical.
Data set [2] is described as follows: Chromatographic hydrophobicity index (CHI) logD by reverse-phase HPLC. Type of data set: physicochemical.
Data set [3] deals with T1, S1PR1 (Homo sapiens, UniProt P21453).
T1 construct: host or cells: CHO-K1 (PathHunter EDG1 β-Arrestin cell line)
Put plainly: PathHunter CHO-K1 EDG1 β-Arrestin recruitment assay. The class given is cell-based. The procedure:
(§1) We selected human plasma stability as a model for human blood metabolism. […] S1PR1 activity was measured using a PathHunter β-Arrestin recruitment assay.[23]
[23] The PathHunter® CHO‐K1 EDG1 β‐Arrestin Cell Line (Discoverx) was used to assess agonist activity of the compounds. Briefly, compound at 5× desired concentration was added to cells and incubated at 37 °C for 90 min. Assay signal was generated through a single addition of PathHunter Detection reagent cocktail, followed by a one hour incubation at room temperature. Microplates were read following signal generation with a PerkinElmer Envision instrument for chemiluminescent signal detection. Percentage activity was calculated using the following formula: % Activity = 100% × (mean RLU of test sample − mean RLU of vehicle control)/(mean MAX control ligand − mean RLU of vehicle control).
For orientation: Arrestin recruitment assays detect the binding of arrestin to an activated receptor.

Data set [4] is described as follows: in vitro. Particulars: for half-life: human, plasma. Type of data set: in vitro ADME, human. The procedure:
as §1

A short description of data set [5]: Human skin S9 stability. The class given is in vitro ADME. Particulars: human skin S9 fraction, skin S9 over 180 mins in the presence of enzymatic cofactors. An excerpt: It may be that the esterases responsible for the metabolism of 12f are present in both human plasma and skin S9 fraction or that skin and plasma esterases have similar substrate affinities.

The test system of data set [6] is plaque psoriasis. Also noted: method as in PMID 25127208. Particulars: oral, phase II clinical trial of psoriasis; cited from earlier work.
For data set [7], the system named is Langerhans cells migrating to the lymph node. Also noted: method as in PMID 19194476. Particulars: mice, topical application; cited from earlier work.
Setting [8] is: PathHunter β-Arrestin, n of 2, geometric mean, range in brackets.

T1 sequence (P21453 whole entry): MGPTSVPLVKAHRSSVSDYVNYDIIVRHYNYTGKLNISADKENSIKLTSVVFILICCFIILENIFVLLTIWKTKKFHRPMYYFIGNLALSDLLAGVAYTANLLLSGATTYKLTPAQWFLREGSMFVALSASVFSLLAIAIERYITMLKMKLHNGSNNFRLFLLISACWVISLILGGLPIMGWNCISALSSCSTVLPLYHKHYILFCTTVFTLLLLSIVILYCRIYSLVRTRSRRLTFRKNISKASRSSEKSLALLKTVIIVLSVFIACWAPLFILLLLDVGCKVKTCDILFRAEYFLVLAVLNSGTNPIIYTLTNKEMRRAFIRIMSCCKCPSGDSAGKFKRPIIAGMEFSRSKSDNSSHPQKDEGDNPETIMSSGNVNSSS

Compound `CCC/N=C1\S/C(=C\c2ccc(C(=O)O)cc2)C(=O)N1c1ccccc1C` [Compound 4a] yielded a Kinetic solubility in data set [1] of 163 µM. Besides, the “CHI logD” value in data set [2] was 1.0. Besides, in data set [3] (setting [8]), the “S1PR1 pIC50” value is given as <6 (0).
The compound `CCC/N=C1\S/C(=C\c2ccc(C(=O)OC)c(Cl)c2)C(=O)N1c1ccccc1C` [Compound 5a] had a half-life in data set [4] of over 3 h. For the same compound, the Kinetic solubility in data set [1] worked out at 39 µM. Besides, in data set [2], the “CHI logD” value is listed as over 4.4. The “S1PR1 pIC50” value in data set [3] (setting [8]) was 8.6 (0.1). Besides, the “improvement in S1PR1 activity compared to 5b” value in data set [3] (compared to 5b) turned out to be 100 fold.
`CCC/N=C1\S/C(=C\c2ccc(C(=O)OC)cc2)C(=O)N1c1ccccc1C` [Compound 5b] registered a half-life in data set [4] of over 3 h. This compound displayed a Kinetic solubility in data set [1] of 28 µM. Further, the “CHI logD” value in data set [2] is recorded as over 4.4. Moreover, the “S1PR1 pIC50” value in data set [3] (setting [8]) is reported as 6.5 (0).
For `CCC/N=C1\S/C(=C\c2ccc(C(=O)OCCO)cc2)C(=O)N1c1ccccc1C` [Compound 5c], the half-life in data set [4] was over 3 h. For the same compound, the “CHI logD” value in data set [2] was found to be 3.4. Also, the “S1PR1 pIC50” value in data set [3] (setting [8]) was 6.9 (0).
For `CCC/N=C1\S/C(=C\c2ccc(C(=O)NCCO)cc2)C(=O)N1c1ccccc1C` [Compound 5d], the half-life in data set [4] was over 3 h. The compound also gave a Kinetic solubility in data set [1] of over 250 µM. Moreover, the “CHI logD” value in data set [2] is 2.3. Also, the “S1PR1 pIC50” value in data set [3] (setting [8]) is recorded as 7.0 (0).
`CCC/N=C1\S/C(=C\c2ccc(OC[C@H](O)CO)c(Cl)c2)C(=O)N1c1ccccc1O` [Compound 6]: the IC50 in data set [3] (PathHunter β-Arrestin, n of 2, geometric mean, range in brackets, read-out: S1PR1 pIC50 (converted)) was 12.6 nM.
As for `CCC/N=C1\S/C(=C\c2ccc(C(=O)O)cc2)C(=O)N1c1ccccc1O` [Compound 11], the half-life in data set [4] is over 3 h. In addition, the “S1PR1 modulator activity (in words)” value in data set [3] was “inactive”.
In the case of `CCC/N=C1\S/C(=C\c2ccc(C(=O)NCC(=O)N(C)C)cc2)C(=O)N1c1ccccc1O` [Compound 12a], in data set [4], the “metabolism in human plasma stability assay (in words)” value (“metabolism” for short) is “lack of metabolism” and the half-life is over 3 h. Further, in data set [2], the “CHI logD” value amounted to 1.9.
In turn, `CCC/N=C1\S/C(=C\c2ccc(C(=O)OCCCO)cc2)C(=O)N1c1ccccc1O` [Compound 12b] returned a half-life in data set [4] of over 3 h. The Kinetic solubility in data set [1] is listed as 183 µM. In addition, in data set [2], the “CHI logD” value is recorded as 2.3.
For the compound `CCC/N=C1\S/C(=C\c2ccc(C(=O)OCC(O)CO)cc2)C(=O)N1c1ccccc1O` (stereo not drawn) [Compound 12c], the half-life in data set [4] was over 3 h. Further, the Kinetic solubility in data set [1] was over 250 µM. Moreover, in data set [2], the “CHI logD” value is 1.8.
For `CCC/N=C1\S/C(=C\c2ccc(C(=O)OCCN3CCOCC3)cc2)C(=O)N1c1ccccc1O` [Compound 12d], the half-life in data set [4] was 3 h. Further, the Kinetic solubility in data set [1] turned out to be 117 µM. Further, in data set [2], the “CHI logD” value is recorded as 3.0. For the same compound, the half-life at 3 h in data set [5] is 2.53 h.
`CCC/N=C1\S/C(=C\c2ccc(C(=O)OCC3COC(=O)O3)cc2)C(=O)N1c1ccccc1O` (stereo not drawn) [Compound 12e]: in data set [4], the “metabolism” value is listed as “did not show sufficient clearance” and the half-life is 1.02 h. In data set [1], this compound gave a Kinetic solubility of 79 µM. Moreover, the “CHI logD” value in data set [2] is listed as 2.8. In data set [5], the half-life at 3 h was determined as 0.667 h.
With `CCC/N=C1\S/C(=C\c2ccc(C(=O)OCc3oc(=O)oc3C)cc2)C(=O)N1c1ccccc1O` [Compound 12f], in data set [4], the “metabolism” value was “rapidly degraded” and the half-life came to 0.15 h. In data set [1], this compound came in with a Kinetic solubility of 79 µM. Further, the “CHI logD” value in data set [2] is reported as 3.3. The “S1PR1 modulator activity (in words)” value in data set [3] is “inactive”. Also, the half-life at 3 h in data set [5] came to 0.383 h.
Take `CCC/N=C1\S/C(=C\c2ccc(CC(=O)OC)cc2)C(=O)N1c1ccccc1O` [Compound 15a]: the half-life in data set [4] was over 3 h. Besides, the “CHI logD” value in data set [2] worked out at 3.2.
In turn, `CCC/N=C1\S/C(=C\c2ccc(CCC(=O)OC)cc2)C(=O)N1c1ccccc1O` [Compound 15b] gave a half-life in data set [4] of over 3 h. In addition, in data set [1], the Kinetic solubility is given as 79 µM. Further, the “CHI logD” value in data set [2] was determined as 3.5.
On to `CCC/N=C1\S/C(=C\c2ccc(OC[C@H](O)CO)c(Cl)c2)C(=O)N1c1ccccc1C` [Ponesimod, ponesimod, reference compound], for which the half-life in data set [4] was over 3 h. In data set [1], this compound returned a Kinetic solubility of 110 µM. The “CHI logD” value in data set [2] was determined as 3.1. For the same compound, the “S1PR1 pIC50” value in data set [3] (setting [8]) is 7.9 (0). Further, the “systemic side effects observed” value in data set [6] was “lymphopenia and transient bradycardia”.
Take `CCCCCCCCc1ccc(CCC(N)(CO)CO)cc1` [fingolimod]: the “number of Langerhans cells migrating to the lymph node” value in data set [7] was “reduction”.
